“And” between values parts separate entries of the source, which are not always exact repeats. Equal values may be shown once.
Experiment: xn = mol fraction of the nth substance listed

O=C([O-])[O-].[Na+].[Na+] + O
Conditions | viscosity
293.15 K, 101.33 kPa, x1 = 0.0032 | 1.085 mPa·s
293.15 K, 101.33 kPa, x1 = 0.0051 | 1.152 mPa·s
293.15 K, 101.33 kPa, x1 = 0.008 | 1.264 mPa·s
293.15 K, 101.33 kPa, x1 = 0.0115 | 1.414 mPa·s
293.15 K, 101.33 kPa, x1 = 0.0152 | 1.593 mPa·s
293.15 K, 101.33 kPa, x1 = 0.0197 | 1.844 mPa·s
293.15 K, 101.33 kPa, x1 = 0.0224 | 2.015 mPa·s
293.15 K, 101.33 kPa, x1 = 0.0255 | 2.232 mPa·s
293.15 K, 101.33 kPa, x1 = 0.0288 | 2.49 mPa·s
293.65 K, 100 kPa, x1 = 0.00502 | 1.145 mPa·s
298.15 K, 101 kPa, x1 = 0.0002 | 0.95 mPa·s
298.15 K, 101 kPa, x1 = 0.001 | 0.95 mPa·s
298.15 K, 101 kPa, x1 = 0.0027 | 0.99 mPa·s
298.15 K, 101 kPa, x1 = 0.00397 | 1.01 mPa·s
298.15 K, 101.33 kPa, x1 = 0.0032 | 0.96 mPa·s
298.15 K, 101.33 kPa, x1 = 0.0051 | 1.018 mPa·s
298.15 K, 101.33 kPa, x1 = 0.008 | 1.113 mPa·s
298.15 K, 101.33 kPa, x1 = 0.0115 | 1.242 mPa·s
298.15 K, 101.33 kPa, x1 = 0.0152 | 1.395 mPa·s
298.15 K, 101.33 kPa, x1 = 0.0197 | 1.609 mPa·s
298.15 K, 101.33 kPa, x1 = 0.0224 | 1.753 mPa·s
298.15 K, 101.33 kPa, x1 = 0.0255 | 1.937 mPa·s
298.15 K, 101.33 kPa, x1 = 0.0288 | 2.155 mPa·s
301.15 K, 100 kPa, x1 = 0.0101 | 1.115 mPa·s and 1.117 mPa·s
303.15 K, 101 kPa, x1 = 0.002 | 0.836 mPa·s
303.15 K, 101 kPa, x1 = 0.005 | 0.923 mPa·s
303.15 K, 101 kPa, x1 = 0.009 | 1.026 mPa·s
303.15 K, 101.33 kPa, x1 = 0.0032 | 0.864 mPa·s
303.15 K, 101.33 kPa, x1 = 0.0051 | 0.915 mPa·s
303.15 K, 101.33 kPa, x1 = 0.008 | 0.998 mPa·s
303.15 K, 101.33 kPa, x1 = 0.0115 | 1.11 mPa·s
303.15 K, 101.33 kPa, x1 = 0.0152 | 1.244 mPa·s
303.15 K, 101.33 kPa, x1 = 0.0197 | 1.429 mPa·s
303.15 K, 101.33 kPa, x1 = 0.0224 | 1.554 mPa·s
303.15 K, 101.33 kPa, x1 = 0.0255 | 1.712 mPa·s
303.15 K, 101.33 kPa, x1 = 0.0288 | 1.9 mPa·s
306.65 K, 100 kPa, x1 = 0.0101 | 0.987 mPa·s
308.15 K, 101 kPa, x1 = 0.002 | 0.763 mPa·s
308.15 K, 101 kPa, x1 = 0.005 | 0.842 mPa·s
308.15 K, 101 kPa, x1 = 0.009 | 0.931 mPa·s
308.65 K, 100 kPa, x1 = 0.00502 | 0.825 mPa·s
311.15 K, 100 kPa, x1 = 0.0168 | 1.1 mPa·s
311.15 K, 100 kPa, x1 = 0.02299 | 1.331 mPa·s and 1.332 mPa·s
313.15 K, 101 kPa, x1 = 0.0002 | 0.7 mPa·s
313.15 K, 101 kPa, x1 = 0.001 | 0.7 mPa·s
313.15 K, 101 kPa, x1 = 0.002 | 0.694 mPa·s
313.15 K, 101 kPa, x1 = 0.0027 | 0.72 mPa·s
313.15 K, 101 kPa, x1 = 0.00397 | 0.74 mPa·s
313.15 K, 101 kPa, x1 = 0.005 | 0.763 mPa·s
313.15 K, 101 kPa, x1 = 0.009 | 0.846 mPa·s

Reference: the CheMixHub viscosity set
